Laboratory results taken from US20090258053A1, “MEDICAL STENT PROVIDED WITH A COMBINATION OF MELATONIN AND PACLITAXEL” (Blue Medical Deevices BV, priority 2006, published 2009).
Where “and” joins values, the source holds several entries; their conditions need not be identical. Identical values can stand only once.

Tests used:
HCAEC [1] = assay: CytoTox-ONE LDH release cytotoxicity assay, HCAEC; type: cell-based, human; conditions: 48 hours, 0.2 to 6 mM Melatonin
Procedure: (§1) Cytotoxicity experiments were performed with cells cultured on 96-well plates. The CytoTox-ONE™ Assay from Promega was used to assess the membrane integrity of cells. This test is based on a fluorometric method to estimate the number of non viable cells present in multiwell plates by measuring the release of lactate dehydrogenase (LDH) from cells with damaged membranes. Subconfluent cells were incubated for 48 hours with Melatonin at concentrations between 0.2 and 6 mM. During the 48 h Melatonin incubation, the medium was not changed to avoid removal of any detached cells. As a positive control three wells of untreated cells were incubated with lysis buffer (delivered with the assay) before measurement. At the end of the Melatonin incubation period, a volume of CytoTox-ONE reagent equal to the volume of cell culture medium present in each well was added. After 10 min incubation at 22° C. (room temperature), 50 μl of stop solution was added per 100 μl of CytoTox-ONE reagent added. The plate was shaked for 10 seconds and fluorescence was recorded with an excitation wavelength of 560 nm and an emission wavelength of 590 nm (Spectramax M2 fluorescence plate reader, Molecular devices).

HCASMC = assay: CytoTox-ONE LDH release cytotoxicity assay, HCASMC; type: cell-based, human; conditions: 48 hours, 0.2 to 6 mM Melatonin
Procedure: as §1

[2] = system: human coronary artery endothelial cells (HCAEC); assay: CellTiter 96 One solution (MTS) cell proliferation assay, HCAEC; type: cell-based
Procedure: (§2) Human coronary artery endothelial cells (HCAEC) were purchased from Cambrex and human coronary artery smooth muscle cells (HCASMC) were purchased from Promocell. Cells were used for experiments between passage 4 and passage 12. Both cell types were cultured in their respective complete culture medium with the following composition: • HCASMC: Smooth Muscle Cell Growth Medium 2: Epidermal Growth Factor (EGF), basic Fibroblast Factor (FGF), Insulin, Fetal Calf Serum (FCS) 5%, Amphotericin B, Gentamicin. • HCAEC: Endothelial Growth Media-2 MV: hEGF, Hydrocortisone, GA-1000, FBS 5%, VEGF, hFGF-B, R3-IGF-1, Ascorbic Acid Medium was changed every other day. 24 hours prior to growth factor stimulation, the medium was replaced by fresh culture medium, however, without growth factors to increase the cellular sensitivity to the subsequent growth factor stimulation. Subconfluent HCAEC were stimulated with 10 ng/ml of VEGF-A, whereas subconfluent HCASMC were stimulated with 10 ng/ml of PDGF-BB. Likewise, both cell types were stimulated with 25% of human serum (final concentration). Melatonin (Acros organics) was kindly provided by BlueMedical Devices BV. A stock solution was prepared in DMSO, aliquoted and stored at −20° C. For each experiment a fresh aliquot was opened and diluted to the desired final concentration in cell culture medium. All proliferation and cytotoxicity experiments were performed on cells cultured on 96 well plates (Costar). The CellTiter 96 One solution cell proliferation assay from Promega was used to assess cell proliferation in a 96-well plate. This assay makes use of the MTS tetrazolium compound as a cellular substrate. MTS is bioreduced by living cells into a coloured formazan product that is soluble in tissue culture medium and absorbs light at 490 nm. The quantity of formazan produced is directly proportional to the number of living cells in culture. After 24 h stimulation, 20 μl of MTS reagent was added to the cells cultured in 100 ul of medium per well. After 2 to 4 hours of incubation at 37° C., 5% CO2, the absorbance at 490 nm was recorded using a 96-well plate reader (Tecan).

[3] = system: HUVEC (Human Umbilical Vein Endothelial Cells); assay: [3H]-thymidine incorporation, HUVEC stimulated with VEGF-A; type: cell-based; conditions: VEGF A 10 ng/ml 24 hours
Procedure: To investigate, whether melatonin has similar effects on other cell types, HUVEC (Human Umbilical Vein Endothelial Cells, Promocell) were tested. HUVEC were cultured in the corresponding complete medium (Endothelial Cell Growth Medium: ECGS/H 0.4%, Fetal Calf Serum 2%, Epidermal Growth Factor 0.1 ng/ml, Hydrocortison 1 μg/ml, basic Fibroblast Factor 1 ng/ml, Amphotericin B 50 ng/ml, Gentamicin 50 μg/ml). 24 hours prior to stimulation, the medium was replaced by a medium containing 2% serum and antibiotics, but devoid of the other complements. Then, HUVEC were stimulated with 10 ng/ml of VEGF-A for 24 hours. HUVEC were incubated for 48 hours with Melatonin and stimulated for 24 hours with VEGF-A at 10 ng/ml. After 24 hours of stimulation, the cells were incubated with radioactive [^3H]-thymidine. Two hour later, the medium was removed and cell-bound DNA was precipitated using 5% TCA (Trichloroacetic acid). Then, [^3H]-thymidine incorporation was measured using a beta-counter.

[4] = system: human coronary artery smooth muscle cells (HCASMC); assay: CellTiter 96 One solution (MTS) cell proliferation assay, HCASMC; type: cell-based
Procedure: as §2

HCAEC [5] = assay: Chemotaxis towards VEGF-A, modified Boyden chamber, HCAEC; type: cell-based, human; conditions: 2 mM Melatonin; VEGF-A 10 ng/ml; migration 4 hours; performed only once
Procedure: Chemotaxis experiments were performed using a modified Boyden chamber. The apparatus consists of two multi-well chambers separated by a filter containing pores of uniform size. A solution containing a chemokine or chemotactic factor is placed in the lower/bottom chamber and a cell suspension is placed in the upper chamber. Cells can migrate through the pores across the filter and towards the chemoattractant in the lower chamber. Cells that migrated across the filter and remain attached to the lower side of the membrane are counted. Data are expressed in terms of migration index: the number of cells that migrated in response to agonist stimulation compared to the number of cells that migrated randomly, i.e. to medium only. Chemotaxis experiments so far were only performed with HCAEC. For these cells a 25×80 mm polycarbonate filter, […] (PVP) free was used (Whatman) with a pore size of […]. Before migration the filter was coated with collagen. Endothelial cells were incubated with Melatonin at 2 mM prior to and during migration. After 24 hours pre-incubation with Melatonin, untreated and Melatonin-treated cells were detached with trypsin and a cell suspension (0.5 million cells/ml) was loaded in the upper part of the chamber. […] At the end of migration, cells were fixed on the filter, stained with Giemsa and counted using a regular optic microscope.

COc1ccc2[nH]cc(CCNC(C)=O)c2c1 [Melatonin, N-acetyl-5-methoxytryptamine]
cytotoxic effect (LDH release) on HCAEC (HCAEC [1]): does not induce any detectable cytotoxic effect
cytotoxic effect (LDH release) on HCASMC (HCASMC): does not induce any detectable cytotoxic effect
concentrations at which proliferation of HCAEC is strongly inhibited [2]: higher than 0.2 mM
effect on HCAEC cell number ([2]; Melatonin between 1 mM and 6 mM): dramatic decrease in cell number
sensitivity of HCAEC proliferation ([2]; Melatonin up to 0.1 mM): not sensitive
concentration of maximal effect on HCAEC cell number ([2]; subconfluent cells): 3 mM and 6 mM
effect on HUVEC ([3]; 0.2 mM Melatonin, 48 hours): inhibitory effect
VEGF-A induced [3H]-thymidine incorporation ([3]; Melatonin 48 hours): completely inhibited
concentrations at which proliferation of HCASMC is strongly inhibited [4]: higher than 0.2 mM
effect on number of smooth muscle cells ([4]; 1 mM Melatonin, 24 hours pre-treatment, PDGF BB 10 ng/ml 24 h): significant decrease in the number of smooth muscle cells
effect on the proliferation of HCASMC ([4]; Melatonin up to 0.1 mM, PDGF BB 10 ng/ml 24 h): no significant effect
concentration of maximal inhibitory effect on HCASMC ([4]; PDGF-BB stimulated): 5 mM
inhibitory effect on HCASMC at higher concentrations ([4]; above 5 mM, up to 10 mM): no significant further increase in the inhibitory effect
effect on chemotactic response of HCAEC towards VEGF-A (HCAEC [5]): did not have any significant effect
